# From patent US20120231141A1, “BITTERNESS-IMPROVING AGENT FOR BITTER FOOD AND DRINK AND ASTRINGENCY-IMPROVING AGENT FOR ASTRINGENT FOOD AND DRINK” (priority 2009, published 2012)
# Legend:
# Format in all cases: in vivo
# [1] = Bitterness evaluation of carbonated water (flavor comparison by 10 panelists); conditions: for A: the number of panelists who felt no difference from sedanenolide-free / B: the number of panelists who felt some reduction in bitterness / Flavor judgment: the number of panelists who judged it as most proper bitterness / N: the number of panelists who hardly felt bitterness: 10 panelists
# Experimental: Sedanenolide was added as a bitterness-improving agent (masking agent for bitterness) of the present invention to sufficiently deaerated pure water at the concentrations shown in the following Table 4, and then carbon dioxide gas was sealed in each bottle at a pressure of 294 KPa to obtain carbonated water of the present invention.
# [2] = Astringency evaluation of green tea drink (flavor comparison by 10 panelists); conditions: for A: the number of panelists who felt no difference from sedanenolide-free / B: the number of panelists who felt some reduction in astringency / Flavor judgment: the number of panelists who judged it as most proper astringency / N: the number of panelists who hardly felt astringency: 10 panelists
# Experimental: Five thousand grams of hot water (containing 0.03% of sodium ascorbate) of 95° C. was added to 100 g of domestic green tea (second picking tea), followed by extraction for 5 min while sometimes stirring. Subsequently, solid-liquid separation with flannel filter was performed to obtain 4500 g of an extract (Bx 0.7°). This extract was adjusted to Bx 0.5° with deionized water to obtain green tea extract having strong astringency. Sedanenolide was added as a taste-improving agent (masking agent for astringency) of the present invention to the resulting extract at the concentrations shown in the following Table 4 to obtain green tea drinks.
# [3] = Bitterness evaluation of green tea drink (flavor comparison by 10 panelists); conditions: for A: the number of panelists who felt no difference from sedanolide-free / B: the number of panelists who fell some reduction in bitterness / Flavor judgment: the number of panelists who judged it as most proper bitterness / N: the number of panelists who hardly felt bitterness: 10 panelists
# Experimental: Five thousand grams of hot water (containing 0.03% of sodium ascorbate) of 60° C. was added to 100 g of Chinese green tea (second picking tea) produced by Josei (heat treatment by steaming), followed by extraction for 5 min while sometimes stirring. Subsequently, solid-liquid separation with flannel filter was performed to obtain 4500 g of an extract (Bx 0.6°). To the extract, 0.04 g of tannase (Kikkoman Corporation: 5000 U/g) was added. The resulting mixture was left to stand at 40° C. for 1 hour to decompose the gallate-type catechin to non-gallate-type catechin (gallate-type catechin has strong astringency, and non-gallate-type catechin has strong bitterness), followed by heating at 90° C. for 1 min to inactivate the enzyme. After cooling to 20° C., the extract was adjusted to Bx 0.5° with deionized water to obtain green tea extract having strong bitterness. Sedanolide was added as a taste-improving agent (masking agent for bitterness) of the present invention to the resulting extract at the concentrations shown in the following Table 3 to obtain green tea drinks.
# [4] = sedanenolide 0.01 ppb in carbonated water
# [5] = sedanenolide 0.01 ppm in carbonated water
# [6] = sedanenolide 0.1 ppb in carbonated water
# [7] = sedanenolide 0.1 ppm in carbonated water
# [8] = sedanenolide 1 ppb in carbonated water
# [9] = sedanenolide 1 ppm in carbonated water
# [10] = sedanenolide 1 ppt in carbonated water
# [11] = sedanenolide 10 ppm in carbonated water
# [12] = sedanenolide 0.01 ppb in green tea drink having strong astringency
# [13] = sedanenolide 0.01 ppm in green tea drink having strong astringency
# [14] = sedanenolide 0.1 ppb in green tea drink having strong astringency
# [15] = sedanenolide 0.1 ppm in green tea drink having strong astringency
# [16] = sedanenolide 1 ppb in green tea drink having strong astringency
# [17] = sedanenolide 1 ppm in green tea drink having strong astringency
# [18] = sedanenolide 1 ppt in green tea drink having strong astringency
# [19] = sedanenolide 10 ppm in green tea drink having strong astringency
# [20] = sedanolide 0.01 ppb in green tea drink having strong bitterness
# [21] = sedanolide 0.01 ppm in green tea drink having strong bitterness
# [22] = sedanolide 0.1 ppb in green tea drink having strong bitterness
# [23] = sedanolide 0.1 ppm in green tea drink having strong bitterness
# [24] = sedanolide 1 ppb in green tea drink having strong bitterness
# [25] = sedanolide 1 ppm in green tea drink having strong bitterness
# [26] = sedanolide 1 ppt in green tea drink having strong bitterness
# [27] = sedanolide 10 ppm in green tea drink having strong bitterness
structure (smiles),measurement,setting,value
CCCC[C@@H]1OC(=O)C2=C1CCC=C2 [sedanenolide],overall result of bitterness masking,"[1]; amount of sedanenolide about 0.1 ppb to 1 ppm, carbonated water",particularly good results were obtained
same,bitterness of carbonated water (judgment),[1]; carbonated water containing 0.01 ppb to 10 ppm of sedanenolide,masked
same,A: the number of panelists who felt no difference from sedanenolide-free,[1]; [4],7
same,B: the number of panelists who felt some reduction in bitterness,[1]; [4],3
same,Flavor judgment: the number of panelists who judged it as most proper bitterness,[1]; [4],0
same,N: the number of panelists who hardly felt bitterness,[1]; [4],0
same,reduction in bitterness at low concentration,"[1]; sedanenolide 0.01 ppb, carbonated water",some panelists felt some reduction in bitterness
same,A: the number of panelists who felt no difference from sedanenolide-free,[1]; [5],2
same,B: the number of panelists who felt some reduction in bitterness,[1]; [5],2
same,Flavor judgment: the number of panelists who judged it as most proper bitterness,[1]; [5],1
same,N: the number of panelists who hardly felt bitterness,[1]; [5],6
same,A: the number of panelists who felt no difference from sedanenolide-free,[1]; [6],5
same,B: the number of panelists who felt some reduction in bitterness,[1]; [6],5
same,Flavor judgment: the number of panelists who judged it as most proper bitterness,[1]; [6],0
same,N: the number of panelists who hardly felt bitterness,[1]; [6],0
same,A: the number of panelists who felt no difference from sedanenolide-free,[1]; [7],0
same,B: the number of panelists who felt some reduction in bitterness,[1]; [7],3
same,Flavor judgment: the number of panelists who judged it as most proper bitterness,[1]; [7],4
same,N: the number of panelists who hardly felt bitterness,[1]; [7],7
same,A: the number of panelists who felt no difference from sedanenolide-free,[1]; [8],4
same,B: the number of panelists who felt some reduction in bitterness,[1]; [8],6
same,Flavor judgment: the number of panelists who judged it as most proper bitterness,[1]; [8],0
same,N: the number of panelists who hardly felt bitterness,[1]; [8],0
same,A: the number of panelists who felt no difference from sedanenolide-free,[1]; [9],0
same,B: the number of panelists who felt some reduction in bitterness,[1]; [9],3
same,Flavor judgment: the number of panelists who judged it as most proper bitterness,[1]; [9],5
same,N: the number of panelists who hardly felt bitterness,[1]; [9],7
same,A: the number of panelists who felt no difference from sedanenolide-free,[1]; [10],10
same,B: the number of panelists who felt some reduction in bitterness,[1]; [10],0
same,Flavor judgment: the number of panelists who judged it as most proper bitterness,[1]; [10],0
same,N: the number of panelists who hardly felt bitterness,[1]; [10],0
same,A: the number of panelists who felt no difference from sedanenolide-free,[1]; [11],0
same,B: the number of panelists who felt some reduction in bitterness,[1]; [11],2
same,Flavor judgment: the number of panelists who judged it as most proper bitterness,[1]; [11],0
same,N: the number of panelists who hardly felt bitterness,[1]; [11],8
same,overall result of astringency masking,"[2]; amount of sedanenolide about 0.1 ppb to 1 ppm, green tea drink",particularly good results were obtained
same,astringency of green tea drink (judgment),[2]; green tea drink containing 0.01 ppb to 10 ppm of sedanenolide,masked
same,A: the number of panelists who felt no difference from sedanenolide-free,[2]; [12],8
same,B: the number of panelists who felt some reduction in astringency,[2]; [12],2
same,Flavor judgment: the number of panelists who judged it as most proper astringency,[2]; [12],0
same,N: the number of panelists who hardly felt astringency,[2]; [12],0
same,reduction in bitterness at low concentration,"[2]; sedanenolide 0.01 ppb, green tea drink having strong astringency",some panelists felt some reduction in bitterness
same,A: the number of panelists who felt no difference from sedanenolide-free,[2]; [13],3
same,B: the number of panelists who felt some reduction in astringency,[2]; [13],6
same,Flavor judgment: the number of panelists who judged it as most proper astringency,[2]; [13],2
same,N: the number of panelists who hardly felt astringency,[2]; [13],1
same,A: the number of panelists who felt no difference from sedanenolide-free,[2]; [14],6
same,B: the number of panelists who felt some reduction in astringency,[2]; [14],3
same,Flavor judgment: the number of panelists who judged it as most proper astringency,[2]; [14],0
same,N: the number of panelists who hardly felt astringency,[2]; [14],1
same,A: the number of panelists who felt no difference from sedanenolide-free,[2]; [15],0
same,B: the number of panelists who felt some reduction in astringency,[2]; [15],3
same,Flavor judgment: the number of panelists who judged it as most proper astringency,[2]; [15],5
same,N: the number of panelists who hardly felt astringency,[2]; [15],7
same,A: the number of panelists who felt no difference from sedanenolide-free,[2]; [16],5
same,B: the number of panelists who felt some reduction in astringency,[2]; [16],5
same,Flavor judgment: the number of panelists who judged it as most proper astringency,[2]; [16],0
same,N: the number of panelists who hardly felt astringency,[2]; [16],0
same,A: the number of panelists who felt no difference from sedanenolide-free,[2]; [17],0
same,B: the number of panelists who felt some reduction in astringency,[2]; [17],3
same,Flavor judgment: the number of panelists who judged it as most proper astringency,[2]; [17],3
same,N: the number of panelists who hardly felt astringency,[2]; [17],7
same,A: the number of panelists who felt no difference from sedanenolide-free,[2]; [18],10
same,B: the number of panelists who felt some reduction in astringency,[2]; [18],0
same,Flavor judgment: the number of panelists who judged it as most proper astringency,[2]; [18],0
same,N: the number of panelists who hardly felt astringency,[2]; [18],0
same,A: the number of panelists who felt no difference from sedanenolide-free,[2]; [19],0
same,B: the number of panelists who felt some reduction in astringency,[2]; [19],2
same,Flavor judgment: the number of panelists who judged it as most proper astringency,[2]; [19],0
same,N: the number of panelists who hardly felt astringency,[2]; [19],8
CCCCC1OC(=O)C2=CCCCC21 (stereo not drawn) [sedanolide],overall result of bitterness masking,"[3]; amount of sedanolide about 0.1 ppb to 1 ppm, green tea drink",particularly good results were obtained
same,bitterness of green tea drink (judgment),[3]; green tea drink containing 0.01 ppb to 10 ppm of sedanolide,masked
same,A: the number of panelists who felt no difference from sedanolide-free,[3]; [20],8
same,B: the number of panelists who fell some reduction in bitterness,[3]; [20],2
same,Flavor judgment: the number of panelists who judged it as most proper bitterness,[3]; [20],0
same,N: the number of panelists who hardly felt bitterness,[3]; [20],0
same,reduction in bitterness at low concentration,"[3]; sedanolide 0.01 ppb, green tea drink",some panelists felt some reduction in bitterness
same,A: the number of panelists who felt no difference from sedanolide-free,[3]; [21],2
same,B: the number of panelists who fell some reduction in bitterness,[3]; [21],6
same,Flavor judgment: the number of panelists who judged it as most proper bitterness,[3]; [21],2
same,N: the number of panelists who hardly felt bitterness,[3]; [21],2
same,A: the number of panelists who felt no difference from sedanolide-free,[3]; [22],4
same,B: the number of panelists who fell some reduction in bitterness,[3]; [22],5
same,Flavor judgment: the number of panelists who judged it as most proper bitterness,[3]; [22],0
same,N: the number of panelists who hardly felt bitterness,[3]; [22],1
same,A: the number of panelists who felt no difference from sedanolide-free,[3]; [23],0
same,B: the number of panelists who fell some reduction in bitterness,[3]; [23],5
same,Flavor judgment: the number of panelists who judged it as most proper bitterness,[3]; [23],5
same,N: the number of panelists who hardly felt bitterness,[3]; [23],5
same,A: the number of panelists who felt no difference from sedanolide-free,[3]; [24],3
same,B: the number of panelists who fell some reduction in bitterness,[3]; [24],6
same,Flavor judgment: the number of panelists who judged it as most proper bitterness,[3]; [24],0
same,N: the number of panelists who hardly felt bitterness,[3]; [24],1
same,A: the number of panelists who felt no difference from sedanolide-free,[3]; [25],0
same,B: the number of panelists who fell some reduction in bitterness,[3]; [25],5
same,Flavor judgment: the number of panelists who judged it as most proper bitterness,[3]; [25],3
same,N: the number of panelists who hardly felt bitterness,[3]; [25],5
same,A: the number of panelists who felt no difference from sedanolide-free,[3]; [26],10
same,B: the number of panelists who fell some reduction in bitterness,[3]; [26],0
same,Flavor judgment: the number of panelists who judged it as most proper bitterness,[3]; [26],0
same,N: the number of panelists who hardly felt bitterness,[3]; [26],0
same,A: the number of panelists who felt no difference from sedanolide-free,[3]; [27],0
same,B: the number of panelists who fell some reduction in bitterness,[3]; [27],5
same,Flavor judgment: the number of panelists who judged it as most proper bitterness,[3]; [27],0
same,N: the number of panelists who hardly felt bitterness,[3]; [27],5
